Here are results for 6 molecules from patent US8592173B2, “Cancer diagnosis by measuring polyisoprenylated methylated protein methyl esterase activity” (Florida Agricultural and Mechanical University, priority 2011, dated 2013).

For this assay, the system named is PMPMEase. Description: Inhibition of PMPMEase by drugs, curcumin, fatty acids and prostaglandins. Conditions: for concentrations at which PMPMEase is inhibited: concentration range stated in words only. It counts as biochemical.

With `COc1cc(/C=C/C(=O)CC(=O)/C=C/c2ccc(O)c(OC)c2)ccc1O` [curcumin], the “concentrations at which PMPMEase is inhibited” value is reported as “micromolar concentrations”.
Still for that read-out and setting: then `CCCCC/C=C\C/C=C\C/C=C\C/C=C\CCCC(=O)O` [arachidonic acid], with “micromolar concentrations”.
Regarding `CCCCC[C@H](O)/C=C/[C@H]1[C@H](O)CC(=O)[C@@H]1C/C=C\CCCC(=O)O` [PGE2], under “1 mM”, the “inhibition of PMPMEase at 1 mM” value is reported as “did not inhibit”.
On to `CCCCC[C@H](O)/C=C/[C@H]1C=CC(=O)[C@@H]1C/C=C\CCCC(=O)O` [Prostaglandin (PG) A2], for which the “fold less potent than AA as PMPMEase inhibitor” value (relative to arachidonic acid (AA)) came to 63 fold.
Regarding `CC/C(=C(\c1ccccc1)c1ccc(OCCN(C)C)cc1)c1ccccc1` [tamoxifen], the “concentrations at which PMPMEase is inhibited” value was “millimolar concentrations”.
Take `O=P1(N(CCCl)CCCl)NCCCO1` (stereo not drawn) [cyclophosphamide]: the “concentrations at which PMPMEase is inhibited” value is recorded as “millimolar concentrations”.
